Marks after values point to notes of the source that are not given here.
Experiments:
[1] = tested on: phospholipase C isoforms beta, delta, and gamma; assay: Free phospholipase C activity in solution (kinetics); assay type: biochemical; settings: for KM / diminution in Vmax / increase in calcium ion concentration required for optimal activity: 10 µM lysocerebroside or 5 µM lysosphingomyelin
Description: The effects of sphingosine, lysocerebroside, and lysosphingomyelin on the kinetics of pure, immunologically isolated phospholipase C isoforms beta, delta, and gamma (which are commercially available) was examined. For each isoform, 10 µM sphingosine was added to a reaction medium consisting of 1 µg phospholipase C isoform/ml, Tris-malate buffer (50 mM, pH 7.0) containing 100 µM phosphatidyl inositol bis-phosphate tri-ammonium salt, 0.01 µCi tritium labeled phosphatidyl inositol bis-phosphate, 100 mM NaCl, 10 mM CaCl2, and 5 mM 2-merceptoethanol.

PC12 cells = assay: Phosphoinositide hydrolysis assay (InsP3 production) in PC12 cells; assay type: cell-based, rat; settings: for sensitivity of PC12 cells to bradykinin: even at relatively moderate levels
Text: PC12 cells, from a rat adrenal pheochromocytoma cell line, were used as a model of neurons from the peripheral nervous system. These cells were obtained from a common laboratory cell culture stock and grown in plastic culture flasks in Dulbecco's modified Eagle's medium (DMEM) supplemented with 5% heat-inactivated horse serum and 10% heat-inactivated fetal calf serum (PC12 cells are also available from the American Type Culture Collection under the Accession number CRL 1721). The cells were grown at 37°C in 5% CO2 in air until a confluent monolayer formed. The cells were dispersed into 24-well plastic tissue culture plates at a density of 10^5 cells per well and used for the phosphoinositide hydrolysis assays (as described in Example 2).
(§1) Receptor-stimulated and basal unstimulated hydrolysis of phosphoinositides was measured by the following procedure. In order to label the cellular phosphoinositides metabolically, the primary cultures of chick cortical neurons (described in Example 1) were incubated overnight with 0.5 ml Dulbecco's modified Eagle's medium containing 1 µCi [^3H]myo-inositol per well. The cells were then washed twice with 1 ml Dulbecco's phosphate-buffered saline (PBS) and 0.5 ml of PBS containing 4.5 g/L glucose was added. Sphingosine, psychosine, lysosulphatide, or lysosphingomyelin, prepared as the hydrochloride salt dissolved in water, were then added to produce the desired extracellular concentration in specific wells, and the 24-well plates were swirled gently on a rotary shaker for 1 hour at 23°C. The cells were then washed twice with 1 ml PBS, and pre-incubated for 15 minutes at 37°C with 0.5 ml PBS containing 10 mM LiCl and the compound to be tested was added. After 30 minutes, the experiment was terminated by adding 1 ml of ice-cold methanol to each well and transferring the material in each well to polypropylene tubes that contained 0.4 ml water and 1 ml chloroform. The tubes were vortexed thoroughly, then centrifuged at 500 x g for 5 minutes to separate the aqueous and chloroform phases. For each sample, a 1.5-ml aliquot of the upper (aqueous) phase was applied to a small column containing BioRad AG1X8 resin (formate form). Free [^3H]inositol and [^3H]glycerophosphoinositol were washed through the column with 5 ml of a solution containing 5 mM sodium borate and 60 mM sodium formate. The total phosphorylated [^3H] inositol fraction was eluted from the column for radiometric scintillation spectrometry analysis with 3 ml 1.0 M ammonium formate/0.1 M formic acid.
(§2) In addition, a 0.5 ml aliquot of the lower (chloroform) phase of each sample was analyzed radiometrically by scintillation spectrometry in order to determine the quantity of lipid-bound [^3H]myo-inositol. Estimation of phosphoinositide hydrolysis by phospholipase C is based upon the quantity of [^3H]inositol phosphates produced, and is expressed as the percentage of the latter relative to total free and componential [^3H]inositol (dpm ammonium formate + dpm chloroform fractions).

[2] = Lysosphingolipid loading of isolated neuronal plasma membrane (fluorescence tagging); assay type: in vitro ADME, chick; settings: Plasma Membrane Suspension, 10 μmolar exposure
Text: Total lipids were removed from the neuron samples by repeated extraction with chloroform:methanol (2:1, vol:vol). The lysosphingolipids were separated from total neuronal lipid in 90 ± 5 % recovery yield (n = 10) by the stepped chromatographic procedure of Van Veldhoven et al. (Anal. Biochem. 183:177-189, 1989). The recovered lysosphingolipids were stably tagged with NBDZF by the rapid procedure of Nozowa et al. (supra). The fluorescence tagged neuronal lysosphingolipids were separated in parallel with reference standards NBDZF-Sph, NBDZF-Psy, and NBDZF-Lsm on high performance silica gel thin layer chromatography plates with acetonitrile:H2O (10:0.5, vol:vol). The highly fluorescent, well separated bands were scraped from the plate. The fluorescence tagged lysosphingolipids are eluted from the scraped silica gel with methanol:1 N HCl (1:0.02, vol:vol). The fluorescence tagged lysosphingolipid eluates were quantitated against reference standards by fluorescence measurement in a Perkin-Elmer LS-5 Fluorescence Spectrometer.
Physiologically active phospholipase C is present on the endofacial portion of the plasma membrane. A procedure for examining its activity in an intact membrane is provided. The neuronal membrane preparation described below is useful for determining lysosphingolipid effects on the phosphatidylinositol kinase and phospholipase C activities in intact membranes. One hundred Petri dishes of cultured cortical neurons were incubated overnight with 50 µCi [^3H]myo-inositol per mL of culture medium. Ten Petri dish-samples of cultured neurons (1 X 10^8 neurons; 23 ± 2 mg protein, n = 15) were pooled to produce 2.4 ± 0.2 mg plasma membrane by the following procedure. The collected neurons were homogenized in 5 mL 0.32 M sucrose and centrifuged at 1000 X g for 15 minutes. The supernatant was layered on top of 2 ml 1.2 M sucrose and centrifuged at 300,000 X g for 20 minutes. The sedimented pellet was resuspended by sonication for 10 seconds in 50 mM Tris buffer (pH 7.4), containing 0.3 µM CaCl2, 1 mM MgCl2, and 0.01% ascorbic acid.
The suspended plasma membrane preparation was apportioned into 250 µl samples, each providing approximately 100 µg membrane protein. Sphingosine, psychosine, and lysosphingomyelin were added to each plasma membrane sample. […] Samples were analyzed for lysosphingolipid loading (i.e., membrane lysosphingolipid content following exposure to exogenous sphingolipid) by fluorescence tagging. Table 2 provides the results of exposure of plasma membrane samples to 10 µM lysosphingolipids. Values are reported in pmoles lysosphingolipid/mg plasma membrane protein. Values obtained for isolated plasma membrane and intact neurons are compared.

[3] = tested on: primary chick cortical neurons; assay: Phosphoinositide hydrolysis assay (InsP3 production) in cultured primary cortical neurons; assay type: cell-based; settings: for Ins-P-n with Lysosphinogolipid Modulator, agonist Aspartate: 100 μM Aspartate, 20 min, neurons preincubated with 20 μM modulator (or 20 μM + 20 μM Sphingosine), washed, normalized to control = 1.00; for enhancement of InsP3 level caused by sphingosine or by metabotropic glutamate receptor agonists / InsP3 signalling: cortical neurons; for InsP3 signalling: as shown in Table 1
Description: The neurons were seeded in 24-well plastic tissue culture plates that had been coated with L-polylysine.
as §1, with “In order to label the cellular phosphoinositides metabolically, the primary cultures of chick cortical neurons (described in Example 1) were incubated overnight with 0.5 ml Dulbecco's modified Eagle's medium containing 1 µCi [^3H]myo-inositol per well.” left out, “and the 24-well plates were swirled gently on a rotary shaker for 1 hour at 23°C.” left out, “After 30 minutes, the experiment was terminated by adding 1 ml of ice-cold methanol to each well and transferring the material in each well to polypropylene tubes that contained 0.4 ml water and 1 ml chloroform.” left out
as §2

SMILES	KM [1]	diminution in Vmax [1]	increase in calcium ion concentration required for optimal activity [1] [fold]	InsP3 production (PC12 cells; PC12 cells, Fig 3)	sensitivity of PC12 cells to bradykinin (PC12 cells; Fig 3)	membrane lysosphingolipid content, 0 hours of incubation [2]	membrane lysosphingolipid content, 0.5 hours of incubation [2]	membrane lysosphingolipid content, 1.0 hours of incubation [2]	membrane lysosphingolipid content, 2.0 hours of incubation [2]	membrane lysosphingolipid content, 3.0 hours of incubation [2]	Ins-P-n with Lysosphinogolipid Modulator, agonist Aspartate [3]	enhancement of InsP3 level caused by sphingosine or by metabotropic glutamate receptor agonists [3]	InsP3 signalling [3]	IC50 (PC12 cells; Rattus norvegicus, PC-12, 0.5 h, read-out: concentration sufficient to reduce a metabotropic response to bradykinin to half maximum) [µM]	KM for substrate phosphatidylinositol bis-phosphate ([1]; 10 µM sphingosine)	calcium ion concentration required for optimal activity ([1]; 10 µM sphingosine)	increase in Vmax ([1]; 10 µM sphingosine, each isoform)	basal, unstimulated level of InsP3 production (PC12 cells; PC12 cells, Fig 3)	basal, unstimulated InsP3 level in cortical neurons [3]
CCCCCCCCCCCCC/C=C/[C@@H](O)[C@@H](N)COP(=O)([O-])OCC[N+](C)(C)C [lysosphingomyelin, sphingosyl phosphorylcholine]	no change	60% ± 10%	5	strongly inhibit	can entirely block	5±1 pmoles lysosphingolipid/mg plasma membrane protein	65±15 pmoles lysosphingolipid/mg plasma membrane protein	110±15 pmoles lysosphingolipid/mg plasma membrane protein	120±10 pmoles lysosphingolipid/mg plasma membrane protein	145±25 pmoles lysosphingolipid/mg plasma membrane protein	1.00±0.06^e	blocked this enhancement	potently modulated InsP3 signalling						
CCCCCCCCCCCCC/C=C/[C@@H](O)[C@@H](N)CO[C@@H]1O[C@H](CO)[C@H](O)[C@H](O)[C@H]1O [psychosine]	no change	60% ± 10%	5	strongly inhibit	can entirely block	45±5 pmoles lysosphingolipid/mg plasma membrane protein	75±20 pmoles lysosphingolipid/mg plasma membrane protein	120±15 pmoles lysosphingolipid/mg plasma membrane protein	180±15 pmoles lysosphingolipid/mg plasma membrane protein	175±20 pmoles lysosphingolipid/mg plasma membrane protein	1.00±0.06^e	blocked this enhancement	potently modulated InsP3 signalling	50					
CCCCCCCCCCCCC/C=C/[C@@H](O)[C@@H](N)CO [sphingosine]						105±5 pmoles lysosphingolipid/mg plasma membrane protein	113±15 pmoles lysosphingolipid/mg plasma membrane protein	140±15 pmoles lysosphingolipid/mg plasma membrane protein	165±20 pmoles lysosphingolipid/mg plasma membrane protein	175±25 pmoles lysosphingolipid/mg plasma membrane protein			potently modulated InsP3 signalling		no effect	a decrease	approximately 2 fold	tonically upregulated	tonically enhanced
